As a reminder, the viability is a read-out of living cells in per cent, often relative to untreated cells.

Where a name gives a salt, the structure may show the parent alone.

The series can be described thus: in vitro. The conditions noted are these: human, hek293t cells.
Regarding `CC(NC(=O)CCl)c1cc(F)ccc1N(C)C` (stereo not drawn) [5-L11, 2-chloro-N-{1-[2-(dimethylamino)-5-fluorophenyl]ethyl}acetamide], the viability at 48 h, 25 µM worked out at 9.52%.

In the case of `CC(Cl)C(=O)Nc1cccc(S(=O)(=O)N2CCCCC2)c1` (stereo not drawn) [5-L12, 2-chloro-N-[3-(piperidine-1-sulfonyl)phenyl]propanamide], the viability at 48 h, 25 µM was found to be 98.7%.

As for `Cc1nn(CC(C)C)c(Cl)c1C1CCCN1C(=O)CCl` (stereo not drawn) [5-L13, 2-chloro-1-{2-[5-chloro-3-methyl-1-(2-methylpropyl)-1H-pyrazol-4-yl]pyrrolidin-1-yl}ethan-1-one], the viability at 48 h, 25 µM came out at 0.964%.

Regarding `O=C(CCl)NCc1ccc(C(=O)N2CCOCC2)cc1` [5-L14, 2-chloro-N-{[4-(morpholine-4-carbonyl)phenyl]methyl}acetamide], the viability at 48 h, 25 µM is 67.7%.

For the molecule `CC(Cl)C(=O)NC(C)c1cnn(CC2CCC2)c1` (stereo not drawn) [5-L15, 2-chloro-N-{1-[1-(cyclobutylmethyl)-1H-pyrazol-4-yl]ethyl}propanamide], the viability at 48 h, 25 µM was found to be 108%.

Take `O=C(CCl)NC(c1ccccc1)C1CC1` (stereo not drawn) [5-L16, 2-chloro-N-[cyclopropyl(phenyl)methyl]acetamide]: the viability at 48 h, 25 µM amounted to 116%.

For the molecule `CC(Cl)C(=O)N(C)Cc1ccnn1C` (stereo not drawn) [5-L17, 2-chloro-N-methyl-N-[(1-methyl-1H-pyrazol-5-yl)methyl]propanamide], the viability at 48 h, 25 µM turned out to be 134%.

For the molecule `Cc1nc(C#N)c(N2CCN(C(=O)CCl)CC2)o1` [5-L18, 5-[4-(2-chloroacetyl)piperazin-1-yl]-2-methyl-1,3-oxazole-4-carbonitrile], the viability at 48 h, 25 µM came to 1.74%.

For the molecule `CC(Cl)C(=O)Nc1ccc2oc(=O)n(CCN(C)C)c2c1` (stereo not drawn) [5-L19, 2-chloro-N-{3-[2-(dimethylamino)ethyl]-2-oxo-2,3-dihydro-1,3-benzoxazol-5-yl}propanamide], the viability at 48 h, 25 µM came to 109%.

`COc1ccccc1NC(=O)C(C)Cl` (stereo not drawn) [5-L20, 2-chloro-N-(2-methoxyphenyl)propanamide]: the viability at 48 h, 25 µM is 91.3%.

Turning to `CC(Cl)C(=O)NCc1conc1C1CCC1` (stereo not drawn) [5-L21, 2-chloro-N-[(3-cyclobutyl-1,2-oxazol-4-yl)methyl]propanamide], the viability at 48 h, 25 µM was found to be 101%.

On to `CC(Cl)C(=O)Nc1ncc(C(F)(F)F)cc1Cl` (stereo not drawn) [5-L22, 2-chloro-N-[3-chloro-5-(trifluoromethyl)pyridin-2-yl]propanamide], for which the viability at 48 h, 25 µM was found to be 105%.

In the case of `CC(Cl)C(=O)NCCN1C(=O)CSC1=O` (stereo not drawn) [5-M03, 2-chloro-N-[2-(2,4-dioxo-1,3-thiazolidin-3-yl)ethyl]propanamide], the viability at 48 h, 25 µM amounted to 87.2%.

As for `CC(c1cnn(C)c1)N(C)C(=O)CCl` (stereo not drawn) [5-M04, 2-chloro-N-methyl-N-[1-(1-methyl-1H-pyrazol-4-yl)ethyl]acetamide], the viability at 48 h, 25 µM was determined as 1.55%.

Turning to `C=CCN(Cc1ccc(Cl)s1)C(=O)CCl` [5-M05, 2-chloro-N-[(5-chlorothiophen-2-yl)methyl]-N-(prop-2-en-1-yl)acetamide], the viability at 48 h, 25 µM is 0.327%.

For the molecule `CC(NC(=O)CCl)C(=O)N1CCCCC1C` (stereo not drawn) [5-M06, 2-chloro-N-[1-(2-methylpiperidin-1-yl)-1-oxopropan-2-yl]acetamide], the viability at 48 h, 25 µM amounted to 104%.

For `Cc1ccc(NC(=O)C2CSCN2C(=O)CCl)c(C)c1` (stereo not drawn) [5-M07, 3-(2-chloroacetyl)-N-(2,4-dimethylphenyl)-1,3-thiazolidine-4-carboxamide], the viability at 48 h, 25 µM is 0.0812%.

`Cc1csc(COC2CCN(C(=O)CCl)C2)n1` (stereo not drawn) [5-M08, 2-chloro-1-{3-[(4-methyl-1,3-thiazol-2-yl)methoxy]pyrrolidin-1-yl}ethan-1-one]: the viability at 48 h, 25 µM was 1.8%.

Consider `O=C(CCl)NC1CCSc2ccc(F)cc21` (stereo not drawn) [5-M09, 2-chloro-N-(6-fluoro-3,4-dihydro-2H-1-benzothiopyran-4-yl)acetamide], for which the viability at 48 h, 25 µM is 0.504%.

`O=C(CCl)N1CCCC1c1nc(Cc2ccc(F)cc2)no1` (stereo not drawn) [5-M10, 2-chloro-1-(2-{3-[(4-fluorophenyl)methyl]-1,2,4-oxadiazol-5-yl}pyrrolidin-1-yl)ethan-1-one]: the viability at 48 h, 25 µM came to 0.55%.

For the molecule `O=C(CCl)N1C2CCC1c1ccccc12` [5-M11, 1-{11-azatricyclo[6.2.1.0,2,7]undeca-2,4,6-trien-11-yl}-2-chloroethan-1-one], the viability at 48 h, 25 µM is -0.105%.

Consider `CC(C)C(C)N(Cc1ccns1)C(=O)CCl` (stereo not drawn) [5-M12, 2-chloro-N-(3-methylbutan-2-yl)-N-[(1,2-thiazol-5-yl)methyl]acetamide], for which the viability at 48 h, 25 µM was found to be 9.67%.

For the molecule `O=C(CCl)NC(c1ccccc1)c1nccs1` (stereo not drawn) [5-M13, 2-chloro-N-[phenyl(1,3-thiazol-2-yl)methyl]acetamide], the viability at 48 h, 25 µM was determined as 2.38%.

In the case of `Cc1ccc(F)c(N2CCC(NC(=O)CCl)CC2)c1` [5-M14, 2-chloro-N-[1-(2-fluoro-5-methylphenyl)piperidin-4-yl]acetamide], the viability at 48 h, 25 µM is 134%.

With `CC(Cl)C(=O)NC(C)c1ccc(Cl)cc1Cl` (stereo not drawn) [5-M15, 2-chloro-N-[1-(2,4-dichlorophenyl)ethyl]propanamide], the viability at 48 h, 25 µM stood at 69%.

Take `Cc1cc(C)n2c(-c3c(Cl)cccc3NC(=O)CCl)nnc2n1` [5-M16, 2-chloro-N-(3-chloro-2-{5,7-dimethyl-[1,2,4]triazolo[4,3-a]pyrimidin-3-yl}phenyl)acetamide]: the viability at 48 h, 25 µM is 1.81%.

Regarding `O=C(CCl)N1N=C(c2ccco2)CC1c1cccc(Cl)c1` (stereo not drawn) [5-M17, 2-chloro-1-[5-(3-chlorophenyl)-3-(furan-2-yl)-4,5-dihydro-1H-pyrazol-1-yl]ethan-1-one], the viability at 48 h, 25 µM amounted to 0.403%.

On to `Cc1nn(C)c(C)c1C(NC(=O)CCl)C(F)(F)F` (stereo not drawn) [5-M18, 2-chloro-N-[2,2,2-trifluoro-1-(1,3,5-trimethyl-1H-pyrazol-4-yl)ethyl]acetamide], for which the viability at 48 h, 25 µM was determined as 1.44%.

As for `CC(Cl)C(=O)NC1CCCc2ccccc21` (stereo not drawn) [5-M19, 2-chloro-N-(1,2,3,4-tetrahydronaphthalen-1-yl)propanamide], the viability at 48 h, 25 µM was 74.2%.

For the molecule `CC(=O)NC1Cc2ccccc2N(C(=O)CCl)C1` (stereo not drawn) [5-M20, N-[1-(2-chloroacetyl)-1,2,3,4-tetrahydroquinolin-3-yl]acetamide], the viability at 48 h, 25 µM stood at 1.81%.

Regarding `COc1ccccc1CNC(=O)C(C)Cl` (stereo not drawn) [5-M21, 2-chloro-N-[(2-methoxyphenyl)methyl]propanamide], the viability at 48 h, 25 µM worked out at 68.7%.

`CN(C)c1nc(N2CCOCC2)ncc1NC(=O)CCl` [5-M22, 2-chloro-N-[4-(dimethylamino)-2-(morpholin-4-yl)pyrimidin-5-yl]acetamide]: the viability at 48 h, 25 µM was determined as 38.9%.

As to `Cc1ccc(CN(Cc2c(C)noc2C)C(=O)CCl)c(C)c1` [5-N03, 2-chloro-N-[(3,5-dimethyl-1,2-oxazol-4-yl)methyl]-N-[(2,4-dimethylphenyl)methyl]acetamide], the viability at 48 h, 25 µM stood at 1.14%.

With `CC(Cl)C(=O)Nc1ccc(N(C)C)cc1` (stereo not drawn) [5-N04, 2-chloro-N-[4-(dimethylamino)phenyl]propanamide hydrochloride], the viability at 48 h, 25 µM worked out at 99.3%.

On to `O=C(NCc1ccco1)C1CCCN1C(=O)CCl` (stereo not drawn) [5-N05, 1-(2-chloroacetyl)-N-[(furan-2-yl)methyl]pyrrolidine-2-carboxamide], for which the viability at 48 h, 25 µM came out at 1.39%.

Regarding `CC(=O)Nc1ccc(NC(=O)C(C)Cl)cc1` (stereo not drawn) [5-N06, 2-chloro-N-(4-acetamidophenyl)propanamide], the viability at 48 h, 25 µM was found to be 101%.

Consider `CN(C(=O)CCl)C1CCCCC1` [5-N07, 2-chloro-N-cyclohexyl-N-methylacetamide], for which the viability at 48 h, 25 µM turned out to be 0.964%.

Consider `O=C(CCl)Nc1ccc(Cl)cc1[N+](=O)[O-]` [5-N08, 2-chloro-N-(4-chloro-2-nitrophenyl)acetamide], for which the viability at 48 h, 25 µM turned out to be 76.9%.

Consider `N#Cc1ccc2c(c1)CCN2C(=O)CCl` [5-N09, 1-(2-chloroacetyl)-2,3-dihydro-1H-indole-5-carbonitrile], for which the viability at 48 h, 25 µM came out at 0.856%.

With `CN(C1CCCCC1)S(=O)(=O)c1ccccc1NC(=O)CCl` [5-N10, 2-chloro-N-{2-[cyclohexyl(methyl)sulfamoyl]phenyl}acetamide], the viability at 48 h, 25 µM was 0.725%.

For the molecule `CC(Cc1ccc(Cl)s1)NC(=O)CCl` (stereo not drawn) [5-N11, 2-chloro-N-[1-(5-chlorothiophen-2-yl)propan-2-yl]acetamide], the viability at 48 h, 25 µM is 0.992%.

`CC(Cl)C(=O)Nc1cccc2ccccc12` (stereo not drawn) [5-N12, 2-chloro-N-(naphthalen-1-yl)propanamide]: the viability at 48 h, 25 µM was 99.8%.

With `C=CC(NC(=O)CCl)C1CCOCC1` (stereo not drawn) [5-N13, 2-chloro-N-[1-(oxan-4-yl)prop-2-en-1-yl]acetamide], the viability at 48 h, 25 µM is 111%.

In the case of `COc1ccc([N+](=O)[O-])cc1NC(=O)C(C)Cl` (stereo not drawn) [5-N14, 2-chloro-N-(2-methoxy-5-nitrophenyl)propanamide], the viability at 48 h, 25 µM was determined as 96.3%.

In the case of `CC(Cl)C(=O)NC(C)c1nnc(-c2cccc(F)c2)s1` (stereo not drawn) [5-N15, 2-chloro-N-{1-[5-(3-fluorophenyl)-1,3,4-thiadiazol-2-yl]ethyl}propanamide], the viability at 48 h, 25 µM stood at 98.1%.

Turning to `O=C(CCl)N(CC1CCCO1)C1CCS(=O)(=O)C1` (stereo not drawn) [5-N16, 2-chloro-N-(1,1-dioxo-1lambda6-thiolan-3-yl)-N-[(oxolan-2-yl)methyl]acetamide], the viability at 48 h, 25 µM turned out to be 2.2%.

With `CC(Cl)C(=O)NC1CCc2cc(C#N)ccc21` (stereo not drawn) [5-N17, 2-chloro-N-(5-cyano-2,3-dihydro-1H-inden-1-yl)propanamide], the viability at 48 h, 25 µM was found to be 105%.

As to `O=C(CCl)N(Cc1ccsc1)C1CC1` [5-N18, 2-chloro-N-cyclopropyl-N-[(thiophen-3-yl)methyl]acetamide], the viability at 48 h, 25 µM is 1.23%.

Turning to `CC(Cl)C(=O)NCCC1=CCCCCC1` (stereo not drawn) [5-N19, 2-chloro-N-[2-(cyclohept-1-en-1-yl)ethyl]propanamide], the viability at 48 h, 25 µM amounted to 120%.

On to `Cc1c(Cl)cccc1NC(=O)CNC(=O)CCl` [5-N20, 2-chloro-N-{[(3-chloro-2-methylphenyl)carbamoyl]methyl}acetamide], for which the viability at 48 h, 25 µM was found to be 1.4%.

Turning to `CCOC(=O)c1cnn2ccc(NC(=O)C(C)Cl)cc12` (stereo not drawn) [5-N21, ethyl 5-(2-chloropropanamido)pyrazolo[1,5-a]pyridine-3-carboxylate], the viability at 48 h, 25 µM is 89.8%.
